Experiment: Prevention of discoloration of EGCG solutions (absorbance at 492 nm)
Type: physicochemical
Conditions: for protection of EGCG from discoloration by reducing agent: further experiments at the observed pH ranges (data not shown)
Protocol: Discoloration was measured using a spectrophotometer at a fixed wavelength of 492 nm. More specifically, solutions of EGCG (2 mM) and NAC (4 mM) were prepared in McIlvaine buffer at various pH levels in 1.0 increments between pH 3.0 to pH 7.0. A control experiment was set up without NAC but otherwise identical conditions. The so prepared solutions were incubated at 55° C. and the discoloration was measured at 492 nm over the next 15 days.

| discoloration measured at 492 nm (EGCG (2 mM) and NAC (4 mM) in McIlvaine buffer, pH levels of less than 6.0, 55° C., over 15 days, versus control without NAC) | protection of EGCG from discoloration by reducing agent | SMILES |
| --- | --- | --- |
| substantially reduced | prevented discoloration | CC(=O)N[C@@H](CS)C(=O)O [NAC, N-acetyl cysteine] |
| – | prevented discoloration | N[C@@H](CCC(=O)N[C@@H](CS)C(=O)NCC(=O)O)C(=O)O [glutathione] |

| SMILES | discoloration measured at 492 nm (EGCG (2 mM) and NAC (4 mM) in McIlvaine buffer, pH levels of less than 6.0, 55° C., over 15 days, versus control without NAC) | protection of EGCG from discoloration by reducing agent |
| --- | --- | --- |
| N[C@@H](CS)C(=O)O [cysteine] | – | failed to provide significant protection from discoloration |

Source: patent US20120142947A1, “Stabilized 3-Hydroxyflavan Compositions and Methods Therefor” (priority 2005, published 2012)
